What was measured:
human α7 nAChR = human α7 nAChR (Homo sapiens, UniProt P36544); details: Table 1
[1] = test system: CFA-induced paw edema in mice; experiment: CFA-induced paw edema in mice; assay type: in vivo, mouse; details: CFA-treated mice; 10 mg/kg differing from vehicle
α9 nAChR = α9 nAChR (Homo sapiens, UniProt Q9UGM1)
[2] = test system: CFA-induced inflammatory pain in mice; details: mouse, in vivo
Procedure: Experiments were conducted using adult (10-15 weeks) male and female C57BL/6J mice from Jackson Laboratory (Bar Harbor ME, USA): α7 WT and KO mice on a C57BL/6J background. Mice null for the α7 subunit along with their WT littermates were initially procured from Jackson Laboratory and later bred in an approved animal care facility at Virginia Commonwealth University. The breeding scheme involved crossing heterozygous mice and backcrossing progeny for at least 12 to 15 generations, to control for irregularities that might occur crossing solely mutant animals, to generate both mutant and WT animals. […] Then mice were retrieved from the vivarium and housed (4-5 mice per cage) for the duration of the study in a temperature- and humidity-controlled out-of-vivarium space on the same light/dark cycle. They were given ad libitum food and water. All experiments were performed during the light cycle.
Mice were injected intraplantarly with 20 μl of CFA (50%, diluted in mineral oil; Sigma-Aldrich). Mechanical sensitivity (see the measurement of the von Frey test) was measured before and 3 days after CFA injection.
The mechanical threshold was expressed as log 10 of 10× force (in milligrams), indicating the force of the von Frey hair to which the animal reacted (paw withdrawn, licking, or shaking). All behavioral testing on animals was performed in a blinded manner.

[3] = test system: locomotor activity of mice; experiment: Locomotor activity of mice (photocell activity cages); assay type: in vivo, mouse; details: 10 mg/kg, compared to vehicle-treated animals
Procedure: Mechanical thresholds were elevated by treatments with II (FIGS. 5A-5D). […] Therefore, the data in FIGS. 5A-5D are the mean±SD scores for each condition. Statistical analysis was conducted using a Kruskal-Wallis test followed by Mann-Whitney rank sum test at each time point following II treatment.
Interruptions of the photocell beams (two banks of eight cells each) were then recorded for the next 60 min. Data are expressed as number of photocell interruptions.

[4] = In vitro metabolic stability in rat hepatocytes
[5] = In vitro metabolic stability in pooled human liver microsomes
[6] = test system: CFA-induced inflammatory pain in mice; details: previously reported α9 nAChR agonist; cited from earlier work

Chain of α9 nAChR (Q9UGM1 26-479 limits assumed): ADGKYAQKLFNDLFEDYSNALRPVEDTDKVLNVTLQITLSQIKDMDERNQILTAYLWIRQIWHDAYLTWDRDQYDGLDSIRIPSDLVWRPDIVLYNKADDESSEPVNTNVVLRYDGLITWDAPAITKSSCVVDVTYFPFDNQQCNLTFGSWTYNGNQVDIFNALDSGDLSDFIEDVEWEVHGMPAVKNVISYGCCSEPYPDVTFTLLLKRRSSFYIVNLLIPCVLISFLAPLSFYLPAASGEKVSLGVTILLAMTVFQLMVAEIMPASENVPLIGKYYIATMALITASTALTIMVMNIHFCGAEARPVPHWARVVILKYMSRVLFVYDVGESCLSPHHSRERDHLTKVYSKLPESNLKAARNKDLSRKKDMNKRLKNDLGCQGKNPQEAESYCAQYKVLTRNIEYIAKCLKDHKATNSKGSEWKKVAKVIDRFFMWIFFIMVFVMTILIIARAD
Chain of human α7 nAChR (P36544 23-502): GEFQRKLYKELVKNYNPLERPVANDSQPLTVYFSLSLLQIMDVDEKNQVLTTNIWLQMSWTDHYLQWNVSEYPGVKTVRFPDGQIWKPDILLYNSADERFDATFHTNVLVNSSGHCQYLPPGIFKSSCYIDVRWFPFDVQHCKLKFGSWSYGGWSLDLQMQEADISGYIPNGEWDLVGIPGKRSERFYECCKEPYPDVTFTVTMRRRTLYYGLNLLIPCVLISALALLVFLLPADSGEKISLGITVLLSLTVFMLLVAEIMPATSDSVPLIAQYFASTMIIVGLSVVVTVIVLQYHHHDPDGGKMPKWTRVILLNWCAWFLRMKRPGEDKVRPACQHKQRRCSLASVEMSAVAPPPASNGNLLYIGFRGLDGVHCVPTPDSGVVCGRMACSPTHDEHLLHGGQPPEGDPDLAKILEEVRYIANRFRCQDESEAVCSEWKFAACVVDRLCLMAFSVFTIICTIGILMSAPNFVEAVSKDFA

Compound | plasma protein binding (Plasma protein binding) | α7 Imax (human α7 nAChR; net charge, relative to ACh maximum) | EC50 (human α7 nAChR; read-out: α7 EC50, unit inferred) | paw edema [1] | type of activity at α9 / α9* nAChR (α9 nAChR) | α9 Imax (α9 nAChR; Table 1, peak current, relative to ACh maximum) | EC50 (α9 nAChR; read-out: α9 EC50, Table 1, unit not given (0.23 as 230 nM)) | mechanical thresholds at the 72 h time point [2] | locomotor activity [3] | clearance [4] | clearance [5] | effective duration against CFA-induced pain like behaviors [6]
CC[N+]1(C)CCN(c2ccc(NC(=O)c3cccc(C)n3)cc2)CC1 [Compound II, 1-Ethyl-1-methyl-4-(4-(6-methylpicolinamido)phenyl)piperazin-1-ium iodide] | 54% | 0.41 ± 0.025 | 78.3 ± 11.3 µM | significantly reduced paw edema | full agonist | 1.01 ± 0.03 | 0.23 ± 0.034 µM | no significant effects | did not significantly alter locomotor activity | low clearance | low clearance | 
CC[N+]1(CC)CCN(c2ccc(C#N)cc2)CC1 [pCN-diEPP] |  |  |  |  |  |  |  |  |  |  |  | 3 to 6 h
